Measurements reported in US20260216170A1, “TETRAHYDROISOQUINOLINE HETEROBIFUNCTIONAL BCL-XL DEGRADERS” (Treeline Biosciences, Inc., priority 2023, published 2026).

Target: T1, Human BCL-XL protein (N-terminal HiBiT tagged BCL-XL expressed in HT1080 cells) (Homo sapiens, UniProt Q07817)
T1 construct: expressed in transfected cells; host or cells: HT-1080 (ATCC CCL-121), stably transduced with lentivirus pLV-UBC-N-HiBiT-BCL-XL-PGK-puro and selected with puromycin
Assay: HiBiT Based Degradation Assay
Format: cell-based
Settings: 24 hours incubation; for DC50: BCL-XL degradation, HT1080 cells expressing N-HiBiT-BCL-XL, normalized with DMSO control, geometric mean for multiple data points, read-out: EC50 (24 h); for Ymin (24 h): bottom of BCL-XL degradation curve (remaining HiBiT-BCL-XL signal vs DMSO control), HT1080 cells
In short: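 BCL-XL degradation was read as Nano-Glo HiBiT lytic luminescence relative to DMSO after a 24 h compound treatment of HT1080 cells carrying stably integrated N-HiBiT-BCL-XL. EC50 values come from four-parameter logistic curves, with the hook-curve minimum fixed as bottom, and are geometric means where tested repeatedly.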

T1 sequence (Q07817 whole entry): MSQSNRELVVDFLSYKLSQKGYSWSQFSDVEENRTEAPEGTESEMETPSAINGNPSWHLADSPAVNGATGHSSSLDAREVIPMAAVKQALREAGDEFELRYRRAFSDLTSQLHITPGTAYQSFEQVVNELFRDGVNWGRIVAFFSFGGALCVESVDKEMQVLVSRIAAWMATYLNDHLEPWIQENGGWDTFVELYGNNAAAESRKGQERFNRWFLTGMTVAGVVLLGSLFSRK

DC50 [nM] | Ymin (24 h) | SMILES
< 10 | B (30% ≤ Ymin < 50%) | Cn1nc(C2CCC(=O)NC2=O)c2ccc(NC(=O)CN3CCC4(CC3)CC(COc3ccc(-c5ccc(N6CCc7ccnc(C(=O)Nc8nc9ccccc9s8)c7C6)nc5C(=O)O)c(C(F)(F)F)c3)C4)cc21 (stereo not drawn) [Compound 160, 6-[8-(1,3-benzothiazol-2-ylcarbamoyl)-3,4-dihydro-1H-2,7-naphthyridin-2-yl]-3-[4-[[7-[2-[[3-(2,6-dioxo-3-piperidyl)-1-methyl-indazol-6-yl]amino]-2-oxo-ethyl]-7-azaspiro[3.5]nonan-2-yl]methoxy]-2-(trifluoromethyl)phenyl]pyridine-2-carboxylic acid]
10 to 100 | B (30% ≤ Ymin < 50%) | Cn1nc(C2CCC(=O)NC2=O)c2ccc(NC(=O)CN3CCC4(CC3)CC(COc3cccc(-c5ccc(N6CCc7cccc(C(=O)Nc8nc9ccccc9s8)c7C6)nc5C(=O)O)c3C(F)(F)F)C4)nc21 (stereo not drawn) [Compound 147]
10 to 100 | B (30% ≤ Ymin < 50%) | Cc1c(OC[C@H]2C[C@@H]2C2CCN(CC(=O)Nc3ccc4c(C5CCC(=O)NC5=O)nn(C)c4c3)CC2)cccc1-c1ccc(N2CCc3cccc(C(=O)Nc4nc5ccccc5s4)c3C2)nc1C(=O)O (single isomer, unassigned) [Compound 1001b]
10 to 100 | A (Ymin < 30%) | Cn1nc(C2CCC(=O)NC2=O)c2ccc(NC(=O)CN3CCC(CCCOc4ccc(-c5ccc(N6CCc7ccnc(C(=O)Nc8nc9ccccc9s8)c7C6)nc5C(=O)O)c(C(F)(F)F)c4)CC3)cc21 (stereo not drawn) [Compound 157, 6-[8-(1,3-benzothiazol-2-ylcarbamoyl)-3,4-dihydro-1H-2,7-naphthyridin-2-yl]-3-[4-[3-[1-[2-[[3-(2,6-dioxo-3-piperidyl)-1-methyl-indazol-6-yl]amino]-2-oxo-ethyl]-4-piperidyl]propoxy]-2-(trifluoromethyl)phenyl]pyridine-2-carboxylic acid]
10 to 100 | B (30% ≤ Ymin < 50%) | Cn1nc(C2CCC(=O)NC2=O)c2ccc(NC(=O)CN3CCC(CCCOc4ccc(-c5ccc(N6CCc7cccc(C(=O)Nc8nc9ccccc9s8)c7C6)nc5C(=O)O)c(F)c4)CC3)c(F)c21 (stereo not drawn) [Compound 212, 6-(8-(benzo[d]thiazol-2-ylcarbamoyl)-3,4-dihydroisoquinolin-2(1H)-yl)-3-(4-(3-(1-(2-((3-(2,6-dioxopiperidin-3-yl)-7-fluoro-1-methyl-1H-indazol-6-yl)amino)-2-oxoethyl)piperidin-4-yl)propoxy)-2-fluorophenyl)picolinic acid]
< 10 | B (30% ≤ Ymin < 50%) | Cn1nc(C2CCC(=O)NC2=O)c2ccc(NC(=O)CN3CCC4(CC3)CC(Oc3cccc(-c5ccc(N6CCc7cccc(C(=O)Nc8nc9ccccc9s8)c7C6)nc5C(=O)O)c3C(F)(F)F)C4)c(F)c21 (stereo not drawn) [Compound 188, 6-(8-(benzo[d]thiazol-2-ylcarbamoyl)-3,4-dihydroisoquinolin-2(1H)-yl)-3-(3-((7-(2-((3-(2,6-dioxopiperidin-3-yl)-7-fluoro-1-methyl-1H-indazol-6-yl)amino)-2-oxoethyl)-7-azaspiro[3.5]nonan-2-yl)oxy)-2-(trifluoromethyl)phenyl)picolinic acid]
< 10 | B (30% ≤ Ymin < 50%) | Cc1cc(OC2CC3(CCN(CC(=O)Nc4ccc5c(C6CCC(=O)NC6=O)nn(C)c5n4)CC3)C2)ccc1-c1ccc(N2CCc3cccc(C(=O)Nc4nc5ccccc5s4)c3C2)nc1C(=O)O (stereo not drawn) [Compound 195]
10 to 100 | A (Ymin < 30%) | COc1c(NC(=O)CN2CC[C@@H](CCCOc3ccc(-c4ccc(N5CCc6cccc(C(=O)Nc7nc8ccccc8s7)c6C5)nc4C(=O)O)c(C)c3)C[C@H]2C)ccc2c(C3CCC(=O)NC3=O)nn(C)c12 (stereo partly drawn) [Compound 210d]

SMILES | DC50 [nM] | Ymin (24 h)
Cc1c(OCCC[C@@H]2C[C@H]3CC[C@@H](C2)N3CC(=O)Nc2ccc3c(C4CCC(=O)NC4=O)nn(C)c3c2)cccc1-c1ccc(N2CCc3cccc(C(=O)Nc4nc5ccccc5s4)c3C2)nc1C(=O)O (stereo partly drawn) [Compound 175a] | < 10 | B (30% ≤ Ymin < 50%)
